Experimental data: US20260070887A1 (Shenzhen Zhongge Biological Technology Co., Ltd., priority 2022, published 2026)
Where two headings read alike, the source gives them in different places.

How the values were obtained:
KIF18A = KIF18A (Homo sapiens (Human), UniProt Q8NI77); assay: KIF18A ATPase activity under tubulin stimulation (ADP-Glo assay); format: biochemical; details: KIF18A 30 nM, ATP 150 μM, pig microtubules
Method: This experiment assesses the inhibitory effect of the compounds of the present disclosure on the KIF18A target according to the IC50 values by measuring the KIF18A ATPase activity under tubulin stimulation with the presence of the compounds.
• 1. Preparation of 30 mL of reaction buffer: • (1) 450 μL 1M Tris-HCl (pH=7.5)+300 μL 1M MgCl2+30 μL 10% Pluronic F-68 (ThermoFisher, 24040032-100 ml); • (2) adjusting pH to 7.5, and adding water to adjust the volume to 30 mL. • 2. Preparation of a 5 mg/mL pig microtubule (Microtubules; MT) (Cytoskeleton Inc, MT002) stock solution: • (1) 10 mL PM buffer=150 μL 1 M PIPES (pH 7.0)+20 μL 0.5 mM MgCl2+100 μL 2 mM Taxol (Cytoskeleton Inc, TXD01)+9730 μL water. • (2) MT ([…]): Adding 100 μL PM buffer to prepare a 5 mg/mL stock solution. Keeping the MT (Cytoskeleton Inc, MT002) at room temperature for 10-15 minutes, gently mixing and storing same at −80° C. • 3. Preparation of 2 mL of kinase buffer: 2 mL reaction buffer+1 μL 2 mM Taxol (Cytoskeleton Inc, TXD01)+12 μL 5 mg/mL MT (Cytoskeleton Inc, MT002). • 4. Preparation of 2×KIF18A (30 nM) (ChemPartner, CPB-P22-31645) working solution: 2.4 μL 10 μM KIF18A (ChemPartner, CPB-P22-31645)+800 μL 1× kinase buffer. • 5. Preparation of 2×ATP (150 μM) (Promega, G9101) working solution: 12 μL 10 mM ATP+800 μL 1× kinase buffer. • 6. 25 nL of compound was transferred to a 384-well plate using Echo650. • 7. 2.5 μL of 2×KIF18A from Step 4 (final concentration of 30 nM) was added to the 384-well plate and the plate was incubated at 25° C. for 15 minutes. • 8. 2.5 μL of 2×ATP from Step 5 (final concentration of 150 μM) was added to the 384-well plate and the plate was incubated at 25° C. for 15 minutes. • 9. 5 μL ADP-Glo™ Reagent (Promega, G9101) was added to the 384-well plate and the plate was incubated at 25° C. for 40 minutes. • 10. 10 μL of kinase detection reagent (Promega, G9101) was added to the 384-well plate and the plate was incubated at 25° C. for 40 minutes. • 11. Luminescence values were measured using the EnVision Xcite Multilabel Reader (PerkinElmer, 2105-0020).

OVCAR-3 cells = assay: OVCAR-3 cell proliferation (Cell Titer-Glo, 10 days); format: cell-based, human
Method: The inhibitory effect on the KIF18A target by the compounds of the present disclosure was evaluated by testing the inhibitory effect on proliferation of OVCAR-3 cells by the compounds of the present disclosure.
The following method was used to determine the effect of the compounds of the present disclosure on the proliferation of human ovarian cancer cells Ovcar-3 (HTB-161, ATCC). Cells were cultured in RPMI-1640 complete medium containing 20% fetal bovine serum, 0.01 mg/mL bovine insulin, 100 U penicillin, and 100 μg/mL streptomycin. The Promega kit Cell Titer-Glo (Cat. No. G7572) was used in this method for test.
For specific steps, reference was made to the kit instructions, and the procedure was outlined below: Test compounds were dissolved in DMSO to prepare a 10 mM stock solution, which was diluted at the predetermined test concentrations, and the test compounds at different concentrations were added to a 384-well cell test plate using ECHO. In the plate pre-added with the test compounds, 400 OVCAR-3 cells in the logarithmic growth phase were seeded per well, ensuring the final concentration of the test compounds in the reaction system ranged between 0.12 nM and 10 μM. The co-culture was maintained in a cell culture incubator for 10 days. Before testing, the cell culture plate was equilibrated for 10 minutes at room temperature, 25 μL of Cell Titer-Glo was added to each well, and the mixture was shaken and mixed well and let stand for 5 minutes. The luminescence values for samples in various wells were read using a microplate reader in Luminescence mode.
The percentage of inhibition of cell proliferation by the test compound at each concentration was calculated by comparing with the values of the control group (0.1% DMSO). The IC50 values of the compounds were obtained by concentration-inhibition rate nonlinear regression analysis of the test compounds using GraphPad Prism 9.

Chain of KIF18A (Q8NI77 whole entry): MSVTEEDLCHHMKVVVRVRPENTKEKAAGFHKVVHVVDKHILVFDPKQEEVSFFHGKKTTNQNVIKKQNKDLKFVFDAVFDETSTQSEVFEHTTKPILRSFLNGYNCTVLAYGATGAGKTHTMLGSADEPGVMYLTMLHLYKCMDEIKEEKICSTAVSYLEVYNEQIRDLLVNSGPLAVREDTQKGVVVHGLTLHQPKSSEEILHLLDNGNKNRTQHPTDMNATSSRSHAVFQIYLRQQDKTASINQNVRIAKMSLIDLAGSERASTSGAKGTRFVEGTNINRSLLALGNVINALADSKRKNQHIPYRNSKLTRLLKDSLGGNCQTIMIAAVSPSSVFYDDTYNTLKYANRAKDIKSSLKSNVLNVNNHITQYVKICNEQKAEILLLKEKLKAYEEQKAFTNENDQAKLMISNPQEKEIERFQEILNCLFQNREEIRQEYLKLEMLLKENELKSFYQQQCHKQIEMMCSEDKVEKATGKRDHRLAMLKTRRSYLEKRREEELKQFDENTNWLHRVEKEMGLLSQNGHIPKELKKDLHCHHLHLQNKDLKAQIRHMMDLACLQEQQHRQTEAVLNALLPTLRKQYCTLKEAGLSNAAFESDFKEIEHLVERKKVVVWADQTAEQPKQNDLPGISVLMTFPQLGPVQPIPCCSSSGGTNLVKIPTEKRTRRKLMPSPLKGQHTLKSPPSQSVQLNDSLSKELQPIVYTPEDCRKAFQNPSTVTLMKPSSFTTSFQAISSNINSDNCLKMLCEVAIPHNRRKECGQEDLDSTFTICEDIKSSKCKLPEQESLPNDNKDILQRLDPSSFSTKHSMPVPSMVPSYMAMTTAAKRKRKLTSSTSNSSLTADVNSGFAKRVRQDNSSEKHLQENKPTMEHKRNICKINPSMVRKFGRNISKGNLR
Chain of KIF18A (P02550 whole entry partner): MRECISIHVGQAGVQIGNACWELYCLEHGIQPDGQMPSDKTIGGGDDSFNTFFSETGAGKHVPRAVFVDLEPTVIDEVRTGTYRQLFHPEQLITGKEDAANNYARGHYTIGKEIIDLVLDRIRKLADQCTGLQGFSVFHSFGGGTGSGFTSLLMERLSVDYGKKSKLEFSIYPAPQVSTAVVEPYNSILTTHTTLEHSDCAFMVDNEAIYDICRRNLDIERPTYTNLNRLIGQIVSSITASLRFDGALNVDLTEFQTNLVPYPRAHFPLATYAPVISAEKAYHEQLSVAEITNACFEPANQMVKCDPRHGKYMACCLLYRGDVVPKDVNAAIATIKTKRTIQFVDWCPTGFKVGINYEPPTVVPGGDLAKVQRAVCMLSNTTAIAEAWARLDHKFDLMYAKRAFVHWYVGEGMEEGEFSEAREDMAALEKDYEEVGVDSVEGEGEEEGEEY
Chain of KIF18A (P02554 whole entry partner): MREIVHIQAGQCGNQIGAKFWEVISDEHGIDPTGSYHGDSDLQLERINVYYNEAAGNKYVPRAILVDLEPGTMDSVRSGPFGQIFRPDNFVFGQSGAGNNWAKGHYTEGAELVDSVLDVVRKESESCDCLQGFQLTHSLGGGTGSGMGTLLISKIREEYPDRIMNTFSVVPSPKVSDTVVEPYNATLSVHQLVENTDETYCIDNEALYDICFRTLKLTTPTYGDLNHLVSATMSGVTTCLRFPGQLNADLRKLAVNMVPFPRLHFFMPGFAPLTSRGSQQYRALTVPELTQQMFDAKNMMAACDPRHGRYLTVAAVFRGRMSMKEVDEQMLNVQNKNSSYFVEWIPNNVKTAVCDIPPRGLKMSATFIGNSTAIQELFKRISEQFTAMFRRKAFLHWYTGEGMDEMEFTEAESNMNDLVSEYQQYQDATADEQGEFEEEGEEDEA

Structure (SMILES)	IC50 (KIF18A) [nM]	IC50 (OVCAR-3 cells; Homo sapiens, OVCAR-3, 240 h) [nM]	IC50 (OVCAR-3 cells) [nM]
CC1Cn2c(cc3c(NC(=O)c4ccc(NS(=O)(=O)CCO)cc4N4CCC5(CC4)CC5)cccc32)C(C)O1 (single isomer, unassigned) [Compound 312-P1, N-(1,3-dimethyl-3,4-dihydro-1H-[1,4]oxazino[4,3-a]indol-9-yl)-4-((2-hydroxyethyl)sulfonamido)-2-(6-azaspiro[2.5]oct-6-yl)benzamide]	50 to 500	50 to 500	
CC1Cn2c(cc3c(NC(=O)c4ccc(NS(=O)(=O)CCO)cc4N4CCC5(CC4)CC5)cccc32)C(C)O1 (single isomer, unassigned) [Compound 312-P2B, N-(1,3-dimethyl-3,4-dihydro-1H-[1,4]oxazino[4,3-a]indol-9-yl)-4-((2-hydroxyethyl)sulfonamido)-2-(6-azaspiro[2.5]oct-6-yl)benzamide]	50 to 500		50 to 500
[2H]C([2H])([2H])OC1c2cc3c(NC(=O)c4ccc(NS(=O)(=O)CCO)cc4N4CCC5(CC4)CC5)cccc3n2CCC1(F)F (single isomer, unassigned) [Compound 385-P1, N-(8,8-difluoro-9-(methoxy-d3)-6,7,8,9-tetrahydropyridino[1,2-a]indol-1-yl)-4-((2-hydroxyethyl)sulfonamido)-2-(6-azaspiro[2.5]oct-6-yl)benzamide]		50 to 500	
[2H]C([2H])([2H])OC1c2cc3c(NC(=O)c4ccc(NS(=O)(=O)CCO)cc4N4CCC(=C(F)F)CC4)cccc3n2CCC1(F)F (single isomer, unassigned) [Compound 386-P1, N-(8,8-difluoro-9-(methoxy-d3)-6,7,8,9-tetrahydropyridino[1,2-a]indol-1-yl)-2-(4-(difluoromethylene)piperidin-1-yl)-4-((2-hydroxyethyl)sulfonamido)benzamide]	500 to 5000		500 to 5000
COC1c2cc3c(NC(=O)c4ccc(NS(=O)(=O)CCO)cc4N4CCC5(CC4)CC5)cccc3n2CCC1(F)F (single isomer, unassigned) [Example 340-P1]	50 to 500		50 to 500
CCS(=O)(=O)Nc1ccc(C(=O)Nc2cccc3c2cc2n3CCCC2O)c(N2CCC3(CC2)CC3)c1 (single isomer, unassigned) [Example 373-P1, 4-(ethylsulfonamido)-N-(9-hydroxy-6,7,8,9-tetrahydropyridino[1,2-a]indol-1-yl)-2-(6-azaspiro[2.5]oct-6-yl)benzamide]	50 to 500	50 to 500	
CCS(=O)(=O)Nc1ccc(C(=O)Nc2cccc3c2cc2n3CCCC2O)c(N2CCC3(CC2)CC3)c1 (single isomer, unassigned) [Example 373-P2, 4-(ethylsulfonamido)-N-(9-hydroxy-6,7,8,9-tetrahydropyridino[1,2-a]indol-1-yl)-2-(6-azaspiro[2.5]oct-6-yl)benzamide]	50 to 500		50 to 500
CC1OCCn2c1cc1c(NC(=O)c3ccc(NS(=O)(=O)CCO)cc3N3CCC4(CC3)CC4)cccc12 (stereo not drawn) [Compound 311-P1, 4-((2-hydroxyethyl)sulfonamido)-N-(1-methyl-3,4-dihydro-1H-[1,4]oxazinyl[4,3-a]indol-9-yl)-2-(6-azaspiro[2.5]oct-6-yl)benzamide]	≤ 50		50 to 500
COC1c2cc3c(NC(=O)c4ccc(NS(=O)(=O)CCO)cc4N4CCC(=C(F)F)CC4)ccc(C#N)c3n2CCC1(F)F (stereo not drawn) [Compound 427, N-(4-cyano-8,8-difluoro-9-methoxy-6,7,8,9-tetrahydropyridino[1,2-a]indol-1-yl)-2-(4-(difluoromethylene)piperidin-1-yl)-4-((2-hydroxyethyl)sulfonamide)benzamide]		50 to 500	
Nc1cc(NS(=O)(=O)CCO)cc(N2CCC3(CC2)CC3)c1C(=O)Nc1cccc2c1CCN2CC1CC1 [Example 42]	50 to 500		
CC1(NS(=O)(=O)c2ccc(C(=O)Nc3cccc4c3ccn4CC3CC3)c(N3CCC4(CC3)CC4)c2)COC1 [Example 44, N-(1-(cyclopropylmethyl)-1H-indol-4-yl)-4-(N-(3-methyloxetan-3-yl)sulfamoyl)-2-(6-azaspiro[2.5]oct-6-yl)benzamide]	50 to 500		
O=C(Nc1cccc(N2CCC(F)(F)CC2)c1)Nc1ccc(NS(=O)(=O)CCO)cc1N1CCC2(CC1)CC2 [Example 147, N-(4-(3-(3-(4,4-difluoropiperidin-1-yl)phenyl)urea)-3-(6-azaspiro[2.5]octan-6-yl)phenyl)-2-hydroxyethane-1-sulfonamide]	500 to 5000		
O=C(Nc1ccc2c(c1)N(CC1CC1)CC2)Nc1ccc(NS(=O)(=O)CCO)cc1N1CCC2(CC1)CC2 [Example 150, N-(4-(3-(1-(cyclopropylmethyl)indolin-6-yl)urea)-3-(6-azaspiro[2.5]octan-6-yl)phenyl)-2-hydroxyethane-1-sulfonamide]	> 5000		
O=C(Nc1ccc2c(c1)CCN2CC1CC1)Nc1ccc(NS(=O)(=O)CCO)cc1N1CCC2(CC1)CC2 [Example 151, N-(4-(3-(1-(cyclopropylmethyl)indolin-5-yl)urea)-3-(6-azaspiro[2.5]octan-6-yl)phenyl)-2-hydroxyethane-1-sulfonamide]	> 5000		
CC(C)(C)Cn1ccc2c(NC(=O)c3ccc(NS(=O)(=O)CCO)cc3N3CCC4(CC3)CC4)cccc21 [Example 281, 4-((2-hydroxyethyl)sulfonamido)-N-(1-neopentyl-1H-indol-4-yl)-2-(6-azaspiro[2.5]octan-6-yl)benzamide]	500 to 5000		
O=C(Nc1cccc2c1ccn2CC1(C(F)(F)F)CC1)c1ccc(NS(=O)(=O)CCO)cc1N1CCC2(CC1)CC2 [Example 284]	500 to 5000		
CC1(Cn2ccc3c(NC(=O)c4ccc(NS(=O)(=O)CCO)cc4N4CCC5(CC4)CC5)cccc32)CC1 [Example 285, 4-((2-hydroxyethyl)sulfonamido)-N-(1-((1-methylcyclopropyl)methyl)-1H-indol-4-yl)-2-(6-azaspiro[2.5]oct-6-yl)benzamide]	50 to 500		
O=C(Nc1nccc2c1cc1n2CCOC1)c1ccc(NS(=O)(=O)CCO)cc1N1CCC2(CC1)CC2 [Example 306, N-(3,4-dihydro-1H-pyridino[3′,4′:4,5]pyrrolo[2,1-c][1,4]oxazin-9-yl)-4-((2-hydroxyethyl)sulfonamido)-2-(6-azaspiro[2.5]oct-6-yl)benzamide]	> 5000		
CC1(C)Cn2c(cc3c(NC(=O)c4cnc(NS(=O)(=O)CCO)cc4N4CCC5(CC4)CC5)cccc32)CO1 [Example 454, N-(3,3-dimethyl-3,4-dihydro-1H-[1,4]oxazino[4,3-a]indol-9-yl)-6-(2-hydroxyethylsulfonamide)-4-(6-azaspiro[2.5]octan-6-yl)nicotinamide]		50 to 500	
CC1(C)Cn2c(cc3c(NC(=O)c4ccc(NS(=O)(=O)CCO)cc4N4CCC(=C(F)F)CC4)ccc(Cl)c32)CO1 [Example 522, N-(6-chloro-3,3-dimethyl-3,4-dihydro-1H-[1,4]oxazino[4,3-a]indol-9-yl)-2-[4-(difluoromethylene)hexahydropyridin-1-yl]-4-{[(2-hydroxyethyl)sulfonamide]}benzamide]		50 to 500	
